Assays:
F508delCFTR [1] = target: T1, F508delCFTR (Homo sapiens, UniProt P13569, DEL508-508); experiment: Cell Surface Expression-Horse Radish Peroxidase (CSE-HRP) assay, test compound without co-corrector; format: cell-based; conditions: for EC50: test compound without co-corrector;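 for Maximum % activity (without co-corrector): percent of on-plate 2 µM positive control corrector response over DMSO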
T1 construct: expressed in transfected cells; host or cells: CFBE41o- human lung-derived epithelial cells (CFBE41o-F508delCFTR-HRP), doxycycline-inducible
Experimental: (§1) Cell Surface Expression-Horse Radish Peroxidase (CSE-HRP) Assay
(§2) A cellular assay for measuring the F508delCFTR cell surface expression after correction with test compounds either without or with a co-corrector (2 μM of 3-[(2R,4R)-4-({[1-(2,2-difluoro-1,3-benzodioxol-5-yl)cyclopropyl]carbonyl}amino)-7-methoxy-3,4-dihydro-2H-chromen-2-yl]benzoic acid), was developed in human lung derived epithelial cell line (CFBE41o-) (Veit G et al, (2012) Mol Biol Cell. 23(21): 4188-4202). The development was achieved by expressing the F508delCFTR mutation along with a horseradish peroxidase (HRP) in the fourth exofacial loop, and then measuring the HRP activity using luminescence readout from these cells, CFBE41o-F508delCFTR-HRP, that were incubated overnight with the test corrector compounds, either without or with the co-corrector. For this primary assay, the CFBE41o-F508delCFTR-HRP cells were plated in 384-well plates (Greiner Bio-one; Cat 781080) at 4,000 cells/well along with 0.5 μg/mL doxycycline to induce the F508delCFTR-HRP expression and further incubated at 37° C., 5% CO2 for 72 hours. The test compounds were then added either without or with a co-corrector at the required concentrations and further incubated for 18-24 hours at 33° C. The highest concentration tested was 20 μM with an 8-point concentration response curve using a 3-fold dilution in both the test compound without or with the co-corrector. Three replicate plates were run to determine one EC50. All plates contained negative controls (dimethyl sulfoxide, DMSO) and positive control (2 μM of 3-[(2R,4R)-4-({[1-(2,2-difluoro-1,3-benzodioxol-5-yl)cyclopropyl]carbonyl}amino)-7-methoxy-3,4-dihydro-2H-chromen-2-yl]benzoic acid) as well as on-plate concentration response of the positive control. Post incubation, the plates were washed 5× times with Dulbecco's phosphate buffered saline (DPBS), followed by the addition of the HRP substrate, luminol (50 μL), and measuring the HRP activity using luminescence readout on EnVision® Multilabel Plate Reader (Perkin Elmer; product number 2104-0010). The raw counts from the experiment were analyzed using Accelrys® Assay Explorer v3.3.
(§3) Z′ greater than 0.5 was used as passing quality control criteria for the plates.
(§4) 1−[3*SDPositive Control+3*SDNegative Control/Absolute (MeanPositive Control−MeanNegative Control)]
(§5) wherein “SD” is standard deviation.
(§6) The % activity measured at each of the 8 test concentrations of the test compound added either without or with a co-corrector (2 μM of 3-[(2R,4R)-4-({[1-(2,2-difluoro-1,3-benzodioxol-5-yl)cyclopropyl]carbonyl}amino)-7-methoxy-3,4-dihydro-2H-chromen-2-yl]benzoic acid) was normalized to the on-plate positive control using the following formulae:
% activity (Test compound without co-corrector)=[(test compound without co-corrector response−DMSO response)/(positive control response−DMSO response)]*100%
(§7) The maximum % activity achieved for the test compound either without or with a co-corrector at any tested concentration is presented in Table 1 along with the respective EC50's calculated using the following general sigmoidal curve with variable Hill slope equation (described as Model 42 in the Accelrys® Assay Explorer v3.3 software):
(§8) General sigmoidal curve with concentration, response, top, bottom, EC50 and Hill slope. This model describes a sigmoidal curve with an adjustable baseline, a. The equation can be used to fit curves where response is either increasing or decreasing with respect to the independent variable, “x”.
“x” is a concentration of drug under test. “y” is the response. “a” is the maximum response, and “d” is the minimum response “c” is the inflection point (EC50) for the curve. That is, “y” is halfway between the lower and upper asymptotes when x=c. “b” is the slope-factor or Hill coefficient. The sign of b is positive when the response increases with increasing dose and is negative when the response decreases with increasing dose (inhibition). The data is presented with the qualifiers shown below: […]

F508delCFTR [2] = target: T1, F508delCFTR; experiment: Cell Surface Expression-Horse Radish Peroxidase (CSE-HRP) assay, test compound with co-corrector; format: cell-based; conditions: with 2 μM co-corrector; for Maximum % activity (with co-corrector): maximum at any tested concentration, normalized to positive control;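 for Maximum % activity (with co-corrector): percent of 2 µM positive control corrector over DMSO; co-corrector is that same compound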
Experimental: as §1, §2, §3, §4, §5, §6
activity (Test compound with co-corrector)=[(test compound with co-corrector response−DMSO response)/(positive control response−DMSO response)]*100
as §7, §8
“x” is a concentration of drug under test. “y” is the response. “a” is the maximum response, and “d” is the minimum response “c” is the inflection point (EC50) for the curve. That is, “y” is halfway between the lower and upper asymptotes when x=c. “b” is the slope-factor or Hill coefficient. The sign of b is positive when the response increases with increasing dose and is negative when the response decreases with increasing dose (inhibition).

[3] = maximum at any tested concentration, normalized to positive control, without co-corrector

T1 sequence (P13569 with tags, fused parts or gaps DEL508-508): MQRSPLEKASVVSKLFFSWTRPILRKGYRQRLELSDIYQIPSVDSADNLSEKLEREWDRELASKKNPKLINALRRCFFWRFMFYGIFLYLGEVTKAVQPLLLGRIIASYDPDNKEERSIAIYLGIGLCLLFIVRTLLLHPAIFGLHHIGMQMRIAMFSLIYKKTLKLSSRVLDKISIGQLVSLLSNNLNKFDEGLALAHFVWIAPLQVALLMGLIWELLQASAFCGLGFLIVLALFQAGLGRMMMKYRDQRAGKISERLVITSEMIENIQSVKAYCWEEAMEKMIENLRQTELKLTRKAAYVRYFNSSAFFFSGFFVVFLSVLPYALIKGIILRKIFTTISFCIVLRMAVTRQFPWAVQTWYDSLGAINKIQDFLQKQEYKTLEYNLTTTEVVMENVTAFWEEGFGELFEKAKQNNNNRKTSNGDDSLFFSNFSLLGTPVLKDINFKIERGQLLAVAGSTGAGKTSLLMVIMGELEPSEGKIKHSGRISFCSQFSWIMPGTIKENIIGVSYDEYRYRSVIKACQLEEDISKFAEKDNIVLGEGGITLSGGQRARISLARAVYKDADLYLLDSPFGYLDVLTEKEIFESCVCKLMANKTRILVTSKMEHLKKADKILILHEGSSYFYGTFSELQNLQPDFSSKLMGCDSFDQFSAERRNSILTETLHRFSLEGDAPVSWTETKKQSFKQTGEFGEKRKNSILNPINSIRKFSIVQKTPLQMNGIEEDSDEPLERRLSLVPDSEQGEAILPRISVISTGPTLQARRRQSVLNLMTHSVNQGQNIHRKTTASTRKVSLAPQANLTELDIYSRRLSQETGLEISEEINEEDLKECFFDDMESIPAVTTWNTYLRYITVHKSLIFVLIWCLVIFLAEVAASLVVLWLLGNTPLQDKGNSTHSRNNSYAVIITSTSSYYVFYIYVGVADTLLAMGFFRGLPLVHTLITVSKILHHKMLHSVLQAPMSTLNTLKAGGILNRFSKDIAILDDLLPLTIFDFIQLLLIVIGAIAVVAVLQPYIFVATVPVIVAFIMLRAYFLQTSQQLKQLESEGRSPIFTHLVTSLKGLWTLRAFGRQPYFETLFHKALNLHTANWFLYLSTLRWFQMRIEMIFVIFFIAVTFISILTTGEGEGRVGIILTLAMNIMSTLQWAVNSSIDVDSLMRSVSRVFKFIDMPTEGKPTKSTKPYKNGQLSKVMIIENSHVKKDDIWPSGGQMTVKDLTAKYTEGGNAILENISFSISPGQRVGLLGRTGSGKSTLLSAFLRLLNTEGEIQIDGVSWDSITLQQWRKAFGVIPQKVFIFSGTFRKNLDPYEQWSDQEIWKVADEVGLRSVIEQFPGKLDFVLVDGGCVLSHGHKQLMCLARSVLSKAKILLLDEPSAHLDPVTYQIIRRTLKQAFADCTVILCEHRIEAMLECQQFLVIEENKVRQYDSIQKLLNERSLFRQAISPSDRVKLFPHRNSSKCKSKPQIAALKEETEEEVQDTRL

EC50 (F508delCFTR [1])	Maximum % activity (with co-corrector) (F508delCFTR [2])	EC50 (F508delCFTR [2])	Emax (F508delCFTR [1]; [3])	Molecule	Maximum % activity (without co-corrector) (F508delCFTR [1]; [3])
3 to 10 µM	+++ (≥350)	< 3 µM	≥ 150%	COc1ccc(Br)c2c1[C@@H](C(=O)NS(=O)(=O)c1cccc3ncccc13)CCC2 (single isomer, unassigned) [Example I-62]	–
< 3 µM	+++ (≥350)	< 3 µM	≥ 150%	COc1ccc(Br)c2c1[C@H](C(=O)NS(=O)(=O)c1cccc3ncccc13)CCC2 (single isomer, unassigned) [Example I-63]	–
3 to 10 µM	+++ (≥350)	< 3 µM	≥ 150%	COc1ccc(Cl)c2c1CC[C@H]2C(=O)NS(=O)(=O)c1cccc2ccccc12 (single isomer, unassigned) [Example I-86]	–
3 to 10 µM	+++ (≥350)	3 to 10 µM	50 to 150%	COc1ccc(Cl)c2c1CC[C@@H]2C(=O)NS(=O)(=O)c1cccc2ccccc12 (single isomer, unassigned) [Example I-87]	–
3 to 10 µM	+++ (≥350)	< 3 µM	≥ 150%	COc1ccc(C2CCC2)c2c1[C@@H](C(=O)NS(=O)(=O)c1cccc3ccccc13)C2 (single isomer, unassigned) [Example I-106]	–
< 3 µM	+++ (≥350)	< 3 µM	≥ 150%	COc1ccc(C2CCC2)c2c1[C@H](C(=O)NS(=O)(=O)c1cccc3ccccc13)C2 (single isomer, unassigned) [Example I-107]	–
3 to 10 µM	+++ (≥350)	< 3 µM	≥ 150%	COc1ccc(C2CCC2)c2c1[C@@H](C(=O)NS(=O)(=O)c1cccc3cnn(C)c13)CC2 (single isomer, unassigned) [Example I-141]	–
< 3 µM	+++ (≥350)	< 3 µM	≥ 150%	COc1ccc(C2CCC2)c2c1[C@H](C(=O)NS(=O)(=O)c1cccc3cnn(C)c13)CC2 (single isomer, unassigned) [Example I-142]	–
3 to 10 µM	+++ (≥350)	< 3 µM	50 to 150%	COc1ccc(C2CCC2)c2c1[C@@H](C(=O)NS(=O)(=O)c1cccc3cnn(C)c13)C2 (single isomer, unassigned) [Example I-143]	–
3 to 10 µM	+++ (≥350)	3 to 10 µM	≥ 150%	COc1ccc(C2CCC2)c2c1[C@@H](C(=O)NS(=O)(=O)c1cccc3c1CCCN3)C2 (single isomer, unassigned) [Example I-145]	–
3 to 10 µM	+++ (≥350)	< 3 µM	≥ 150%	COc1ccc(C2CCC2)c2c1[C@@H](C(=O)NS(=O)(=O)c1cccc3ncccc13)C2 (single isomer, unassigned) [Example I-147]	–
< 3 µM	+++ (≥350)	< 3 µM	≥ 150%	COc1ccc(C2CCC2)c2c1[C@H](C(=O)NS(=O)(=O)c1cccc3ncccc13)C2 (single isomer, unassigned) [Example I-148]	–
3 to 10 µM	++ (≥150 and <350)	< 3 µM	50 to 150%	Cc1ccccc1S(=O)(=O)NC(=O)[C@H]1CCc2c(Cl)cccc21 (single isomer, unassigned) [II-29]	–
3 to 10 µM	+++ (≥350)	3 to 10 µM	≥ 150%	COc1cccc2c1CCC2C(=O)NS(=O)(=O)c1cccc2ccccc12 (stereo not drawn) [Example I-1, 4-methoxy-N-(naphthalene-1-sulfonyl)-2,3-dihydro-1H-indene-1-carboxamide]	–
3 to 10 µM	+++ (≥350)	< 3 µM	≥ 150%	O=C(NS(=O)(=O)c1cccc2ccccc12)C1CCCc2cccc(Cl)c21 (stereo not drawn) [Example I-2, 8-chloro-N-(naphthalene-1-sulfonyl)-1,2,3,4-tetrahydronaphthalene-1-carboxamide]	–
3 to 10 µM	+++ (≥350)	3 to 10 µM	≥ 150%	COc1cccc2c1CCC[C@H]2C(=O)NS(=O)(=O)c1cccc2ccccc12 [Example I-3, (1R)-5-methoxy-N-(naphthalene-1-sulfonyl)-1,2,3,4-tetrahydronaphthalene-1-carboxamide]	–
3 to 10 µM	+++ (≥350)	3 to 10 µM	≥ 150%	COc1cccc2c1CCCC2C(=O)NS(=O)(=O)c1cccc2ccccc12 (stereo not drawn) [Example I-4, 5-methoxy-N-(naphthalene-1-sulfonyl)-1,2,3,4-tetrahydronaphthalene-1-carboxamide]	–
< 3 µM	+++ (≥350)	< 3 µM	≥ 150%	O=C(NS(=O)(=O)c1cccc2ccccc12)C1(Cc2ccccc2)CCc2c(Cl)cccc21 (stereo not drawn) [Example I-5, 1-benzyl-4-chloro-N-(naphthalene-1-sulfonyl)-2,3-dihydro-1H-indene-1-carboxamide]	–
3 to 10 µM	+++ (≥350)	3 to 10 µM	≥ 150%	COc1cccc2c1CC[C@@]2(C)C(=O)NS(=O)(=O)c1cccc2ccccc12 [Example I-6, (1R)-4-methoxy-1-methyl-N-(naphthalene-1-sulfonyl)-2,3-dihydro-1H-indene-1-carboxamide]	–
< 3 µM	+++ (≥350)	< 3 µM	≥ 150%	CCC1(C(=O)NS(=O)(=O)c2cccc3ccccc23)CCc2c(Cl)cccc21 (stereo not drawn) [Example I-7, 4-chloro-1-ethyl-N-(naphthalene-1-sulfonyl)-2,3-dihydro-1H-indene-1-carboxamide]	–
3 to 10 µM	+++ (≥350)	3 to 10 µM	≥ 150%	O=C(NS(=O)(=O)c1cccc2ccccc12)C1CCc2c(Cl)cccc21 (stereo not drawn) [Example I-8, 4-chloro-N-(naphthalene-1-sulfonyl)-2,3-dihydro-1H-indene-1-carboxamide]	–
–	+++ (≥350)	< 3 µM	–	CCCCC1(C(=O)NS(=O)(=O)c2cccc3ccccc23)CCc2c(Cl)cccc21 (stereo not drawn) [Example I-30, 1-butyl-4-chloro-N-(naphthalene-1-sulfonyl)-2,3-dihydro-1H-indene-1-carboxamide]	–

Molecule	EC50 (F508delCFTR [1])	Maximum % activity (with co-corrector) (F508delCFTR [2])	EC50 (F508delCFTR [2])	Emax (F508delCFTR [1]; [3])	Maximum % activity (without co-corrector) (F508delCFTR [1]; [3])
2-cyclobutyl-5-methoxy-N-(1-methyl-1H-benzimidazole-7-sulfonyl)bicyclo[4.2.0]octa-1,3,5-triene-7-carboxamide [Example I-134]	< 3 µM	+++ (≥350)	< 3 µM	–	+++ (≥150)
